The values that follow come from US20120177712A1, “ANTIMICROBIAL PARTICLE AND A PROCESS FOR PREPARING THE SAME” (priority 2009, published 2012).

The test system of this assay is S. epidermidis. The assay is described as follows: Antimicrobial activity on fabric (washed cotton swatches). The format is cell-based. The conditions noted are these: in model detergent (0.6 g/L Na-LAS, 1.2 g/L Soda, 0.9 g/L NaCl), CPC 0.02 g/L or equivalent amount of particle, cotton swatches soaked, rinsed three times. On the procedure: Cotton swatches having dimension 4×4 cm were used in this example. The swatches were soaked in respective compositions as given below for 30 minutes and then washed for 30 minutes in a shaker bath. After that the swatches were rinsed three times with deionized water in a shaker bath. The liquid to cloth ration were maintained at 20 during the washing and rinsing step.

As to `CCCCCCCCCCCCCCCC[n+]1ccccc1` [CPC, Cetylpyridinium chloride], the Log reduction was 1.99.
